Molecules are shown by their SMILES. A value given as a limit tells only on which side of the number the result lay.

The compound `O=C(O)c1cccc(-n2nnnc2S)c1` displayed a melting point of 181 to 182 °C.

On to `Cc1nc2sc3c(NCCCN4CCCC4=O)ncnc3c2c2c1CCC(C)(C)C2`, for which the melting point lay within 205 to 206 °C.

With `CC(C)(C)NC(=O)c1ccc(Br)cc1`, the melting point fell in the range of 126 to 128 °C.

The compound `Nc1nc(-c2ccc(CCNC(=O)C(F)(F)F)cc2)cs1` yielded a melting point of 180 to 182 °C.

Turning to `CC(CC(=O)O)c1ccc(-c2ccc(F)cc2F)cc1` (configuration not stated), the melting point was 109 to 110 °C.

In turn, `CC(C)CC(=O)Nc1ccc2oc3c(c2c1)CCCCC3` had a melting point of 162 to 163 °C.

Compound `O=C(CC1CCCCC1)Nc1c(Cl)ccc2nc(NC[C@@H](O)CO)ccc12` returned a melting point of 155 to 159 °C.

Take `CCC(=O)c1cc(Cl)c(O)c(Cl)c1`: the melting point lay within 50 to 52 °C.

For `N=C(Nc1ccccc1)Nc1nc(-c2ccccc2)cs1`, the melting point is 179 to 180 °C.

The compound `CC(=O)NCc1ccc(CN2CCN(c3ncc(Br)s3)CC2)cc1` gave a melting point of 160 to 163 °C.

On to `CCOC(=O)CNC(=O)Nc1ccc(C(=O)/C=C/c2ccc(-c3cccs3)cc2)cc1`, for which the melting point lay in the range of 209 to 212 °C.

As for `Nc1n[nH]c2nc3cc(O)ccc3cc12`, the melting point was > 300 °C.

As for `CC(C)(C#N)c1ccc(C(=O)CCCCl)cc1`, the melting point fell in the range of 79 to 80 °C.

In turn, `O=C1c2ccccc2-n2cnc(-c3noc(CCl)n3)c2[C@@H]2CCN12` registered a melting point of 205 to 207 °C.

As to `Cn1c(=O)n(C(N)=O)c2ccccc21`, the melting point is > 250 °C.

Turning to `N=C(N)c1sccc1-c1ccc(CN2CCSC2)cc1`, the melting point lay within 162 to 164 °C.

Regarding `CN(CC(=O)Nc1ccc(Cl)cc1)C(=O)OC(C)(C)C`, the melting point was 126 to 128 °C.

`CC(C)(C)OC(=O)N1CCN(c2cccc3c2ccn3S(=O)(=O)c2ccccc2)CC1` registered a melting point of 143 to 144 °C.

With `CCOP(=O)(Cc1ccc(NC(=O)[C@H]2Cc3cc(OC)c(OC)cc3C(=O)CS2)cc1)OCC`, the melting point fell in the range of 96 to 98 °C.

Compound `CC(C#Cc1ccc(OCc2ccccc2)cc1)N(O)C(N)=O` (configuration not stated) gave a melting point of 154 to 156 °C.

For the compound `CN(C)C=CC(=O)c1ccc(I)cc1`, the melting point was in the range of 117 to 118 °C.

Compound `COc1ccc(-c2[nH]nc3c2C(=O)c2c(NC(=O)Cc4ccccc4Cl)cccc2-3)cc1` registered a melting point of 300 °C.

The compound `Cn1nc(Cl)c(C2=NOCCO2)c1S(N)(=O)=O` came in with a melting point of 158 °C.

Compound `CCCc1nnc(-c2ccc(N(C)C)cc2)n1-c1ccc(OC)cc1` yielded a melting point of 160 °C.

As for `CN(C)C(=O)C(C)(C)n1cc(Cl)c(-c2ccccc2)n1`, the melting point fell in the range of 117 to 119 °C.

Consider `C[C@@H]1CN(c2c(F)c(N)c3c(=O)c(C(=O)O)cn(C4CC4)c3c2F)C[C@H]1N` (relative stereo), for which the melting point fell in the range of 234 to 236 °C.

`COc1cccc2c1C13CCN(C(=O)OCC(Cl)(Cl)Cl)C(C2)C1(C(=O)OCC(Cl)(Cl)Cl)CCC(=O)C3` (configuration not stated): the melting point lay in the range of 115 to 116 °C.

As for `COc1nc(C)cnc1NS(=O)(=O)c1cccnc1-c1ccc(OCC(C)(C)O)cc1`, the melting point lay within 156 to 157 °C.

As to `COC(=O)CCCc1cc2nc(OC)ccc2n1S(=O)(=O)c1ccccc1`, the melting point is 113 to 114 °C.

With `CCOC(=O)c1[nH]c(C)c(C)c1O`, the melting point lay in the range of 111 to 113 °C.

As to `Cc1cccc(NC(=O)NC2N=C(c3ccccc3F)c3ccccc3N(CC(=O)O)C2=O)c1` (racemic), the melting point fell in the range of 167 to 169 °C.

As for `CCC1(C)OC(c2ccc(S(N)(=O)=O)cc2)=C(c2ccco2)C1=O` (configuration not stated), the melting point fell in the range of 154 to 155 °C.

In turn, `N#CC[C@H](NC(=O)c1ccc2ccccc2c1)C(=O)O` had a melting point of 95 to 100 °C.

Compound `O=c1c(CCCl)n[nH]c2ccccc12` showed a melting point of 201 to 203 °C.

On to `CCCN(CC(=O)Nc1c(OC)nc(C)nc1OC)c1ccccc1`, for which the melting point lay within 173 to 174 °C.

In the case of `Cc1sc2ncc(C(=O)CC(O)c3ccccc3)n2c1C` (configuration not stated), the melting point was found to be 113 °C.

Regarding `O=C1CSCN1CCCCN1CCN(c2ccc3ccccc3n2)CC1`, the melting point lay within 105 to 107 °C.

`CC(=O)OC1(C(C)=O)CCC2C3CCC4=CC(=O)CCC4(C)C3(Br)C(F)CC21C` (configuration not stated) registered a melting point of 180 to 182 °C.

Turning to `CSc1cc(C)nc(SC)c1NC(=O)CBr`, the melting point lay in the range of 171 to 172 °C.

Take `CC1(C)CC(c2ccc(Cl)cc2)=C(c2ccc(S(N)(=O)=O)cc2)C1`: the melting point lay in the range of 144 to 145 °C.

As for `CCCn1nc2c(N)nc3ccccc3c2c1NCCC1CCN(C(C)=O)CC1`, the melting point is 203 to 206 °C.

In turn, `NC(=O)c1ccc(N)c(C(N)=O)c1` had a melting point of 177 to 198 °C.

Turning to `COc1ccc(CN2CCc3cc(OCc4ccccc4)c(OC)cc3C2)cc1OC`, the melting point fell in the range of 98 to 99 °C.

With `Cn1nc(C(F)(F)F)c(CS(=O)(=O)C2=NOC(C)(C)C2)c1C#N`, the melting point lay in the range of 105 to 108 °C.

`COc1ccc(S(=O)(=O)N(CCN2CCC(C(=O)c3ccc(F)cc3)CC2)c2cccc(OC)c2)cc1`: the melting point was 129 to 132 °C.

On to `O=C1[C@@H]2C[C@H](OCc3ccc4cnccc4c3)CN2C(=O)N1c1cc(Cl)cc(Cl)c1`, for which the melting point turned out to be 144 °C.

`Nc1cccc2c(=O)[nH]ncc12` came in with a melting point of 289 to 291 °C.

As for `CCC1(O)OCc2c1ccnc2OC` (configuration not stated), the melting point amounted to 145 °C.

`COC(=O)c1cc(Cl)c(NC(C)=O)cc1OC1C=CCCC1` (configuration not stated) came in with a melting point of 100 to 102 °C.

The compound `CS(=O)c1c(C=NO[Si](C)(C)C(C)(C)C)nn(-c2c(Cl)cc(C(F)(F)F)cc2Cl)c1N` (configuration not stated) came in with a melting point of 150 to 154 °C.

In turn, `Clc1cccc2c1ccn2Cc1ccccc1` yielded a melting point of 58 to 60 °C.

The compound `CCCc1c(OC(C(=O)O)c2ccc(Cl)cc2)ccc(C(C)=O)c1O` (configuration not stated) gave a melting point of 163 to 164 °C.

The compound `CNc1ccccc1C(=O)COC(=O)c1ccccc1` yielded a melting point of 85 to 87 °C.

In turn, `OCCc1c(-c2ccccc2)n2nnnc2n2ncnc12` registered a melting point of 110 °C.

Compound `Nc1nc2c(c(Nc3ccccc3)n1)-c1ccccc1C2` had a melting point of 215 to 217 °C.

On to `O=C1Cc2cc(CCCl)ccc2N1`, for which the melting point lay in the range of 168 to 170 °C.

As to `CN(C)C(=O)c1ccc(C(=O)CS(=O)(=O)C(c2ccc(Cl)cc2)c2ccc(Cl)cc2)s1`, the melting point lay within 192 to 194 °C.

Consider `COc1ccc(-c2ccco2)c2c1c(CCN(C)C)cn2C`, for which the melting point lay in the range of 90 to 93 °C.

In the case of `CS(=O)(=O)c1ccc(C(=O)N[C@H]2CC[C@H](CCN3CCC(c4cccc5c4CCO5)CC3)CC2)s1`, the melting point was determined as 255 °C.

Turning to `CCCCNC(=O)c1ccccc1CN1C(=O)C2(COc3cc4c(cc32)CCO4)c2ccccc21` (configuration not stated), the melting point fell in the range of 176 to 178 °C.

In turn, `CNCC(O)COc1cccc(Nc2cc(Nc3cccc(C)c3)ncn2)c1` (configuration not stated) yielded a melting point of 88 to 90 °C.

The compound `COc1ccc(C)cc1NC(=O)Nc1ccc(N2CCN(C(=O)Nc3c(C)cccc3C(=O)O)CC2)cc1` displayed a melting point of 159 to 160 °C.

On to `CC(=O)NCCCNc1ccc(NCCN(C)C)c2c1C(=O)c1ccccc1C2=O`, for which the melting point lay in the range of 193 to 194 °C.

On to `CC(=O)c1cccc(-c2cc3c(=O)n(NS(C)(=O)=O)c(=O)[nH]c3cc2C(F)(F)F)c1`, for which the melting point was 220 to 222 °C.

`CC(C)=CCCNC(=S)Nc1nc(C)cs1`: the melting point was 164 to 166 °C.

In turn, `CCOC(=O)C=C(C)Nc1ccc(OC)c(OC)c1` came in with a melting point of 57 to 58 °C.

`C=CCc1cc2c(c(CC=C)c1O)N(CC=C(C)C)C(=O)CC2` displayed a melting point of 94 to 96 °C.

In turn, `Cc1ccc2c3c(ccc2n1)OC[C@H](CNC[C@@H]1CCc2[nH]c4ccc(F)cc4c2C1)O3` had a melting point of 89 to 93 °C.

`O=Cc1c(Cl)cncc1Cl`: the melting point lay within 110 to 111 °C.

In turn, `CN1Cc2c(I)ncn2-c2ccccc2C1=O` yielded a melting point of 174 to 176 °C.

Turning to `COC(=O)c1cc(N2CCCC2)c(Oc2cc(C)cc(C)c2)c(S(N)(=O)=O)c1`, the melting point is 208 to 209 °C.

`CCc1ccc(-c2cn(C)cc(-c3ccccc3)c2=O)cc1` yielded a melting point of 143 to 145 °C.

Regarding `CCOC(=O)Cc1c(C)nn(-c2ccc(OC)cc2)c1C`, the melting point was in the range of 71 to 72 °C.

The compound `CS(=O)(=O)c1ccc(C(CC2CCCC2)C(=O)Nc2nc(CO)cs2)cc1` (configuration not stated) came in with a melting point of 124 to 126 °C.

As for `CC(C)(C)OC(=O)N1C(COc2noc3ccc(Cl)cc23)COC1(C)C` (configuration not stated), the melting point fell in the range of 117 to 118 °C.

Take `CCOC(=O)c1cc(O)n(-c2ccccc2)n1`: the melting point was in the range of 183 to 184 °C.

The compound `C=C(OCC)c1cc(C(=O)OC)c(NC(C)=O)cc1C(F)(F)F` gave a melting point of 65 to 73 °C.

Compound `COC(=O)c1ccc(CC(C)=O)cc1` returned a melting point of 40 to 47 °C.

As for `Nc1cccc(-c2ccc(CCN3CCN(C(=O)c4ccccc4)CC3)cc2)n1`, the melting point fell in the range of 125 to 127 °C.

In the case of `CC(=O)N1CCN(c2ccc(Nc3nccc(-c4sc(-c5cccnc5)nc4C)n3)cc2)CC1`, the melting point was in the range of 123 to 125 °C.

The compound `CCc1cc(C(N)=O)nn1C` had a melting point of 170 to 172 °C.

In turn, `COc1ccc2c(Cc3c(Cl)cncc3Cl)nnc(-c3ccccc3)c2c1` yielded a melting point of 206 to 208 °C.

`CCCCCCCN(CCCCCSc1nc(-c2ccccc2)c(-c2ccccc2)[nH]1)c1nc2ccccc2o1`: the melting point is 58 to 60 °C.

As to `CCn1c(C)nc2cc(C(F)(F)F)c(N(C)C)c(N)c21`, the melting point was in the range of 141 to 142 °C.

`CS(=O)(=O)Nc1ccc(OC(=O)c2ccc(CCBr)cc2)cc1`: the melting point is 161 to 162 °C.

`COc1ccc(C(=O)CN2CCc3cc(OCc4ccccc4)c(OC)cc3C2)cc1OC` had a melting point of 126 to 127 °C.

`COc1c(C)c(C)c(OC)c([N+](=O)[O-])c1[N+](=O)[O-]` displayed a melting point of 147 to 150 °C.

The compound `CN1C(=O)CCC1(O)c1ccc(Cl)c(S(=O)(=O)NCCc2ccccc2)c1` (configuration not stated) gave a melting point of 149 to 153 °C.

`CN1c2ccccc2N(C(=O)CNC(C)(C)C)c2ccccc2S1(=O)=O` displayed a melting point of 143 to 145 °C.

Turning to `Cc1ccc(C(=O)Nc2cc3c(cc2N)C(C)(C)CCC3(C)C)cc1`, the melting point was determined as 180 °C.

With `CCNC(=O)[C@@H]1C[C@]2(NC(=O)N(CCCCl)C2=O)c2cc(F)ccc2O1`, the melting point fell in the range of 95 to 97 °C.

`COc1cccc(CBr)c1CBr` registered a melting point of 78 to 79 °C.

The melting point is the temperature of the solid-liquid transition.

Source of the values: a melting point compilation (Tetko et al.; mined from patent text by program, amines drawn as free bases though some values may be those of a salt).
